Non-standard residues stand in square brackets, D forms with d. Primed or numbered codes have the meaning given here. No end group written: not given here. β3hY = N[C@H](CC(=O)O)Cc1ccc(O)cc1; Kβ″ = beta-amino acid residue (K); β3hK = NCCCC[C@H](N)CC(=O)O
Test system: SJL/J mice exhibiting MBP (85-109) induced relapsing remitting form of EAE
Experiment: Therapeutic activity in MBP (85-109) induced relapsing remitting EAE, treatment from day 11
Assay type: in vivo
Details: SJL/J mice, RR EAE; for Therapeutic activity in comparison to GA (Therapeutic activity (Analogs) − Therapeutic activity GA) / Therapeutic activity in comparison to J5 (Therapeutic activity (Analogs) − Therapeutic activity (J5)): 0.1 mg daily for two weeks; for Therapeutic activity = % reduction in cumulative clinical disability score: synthetic peptides, 0.1 mg daily for two weeks from day 11 post-immunization
Protocol: SJL/J and C57BL6/J mice procured from Jackson's laboratory (Bar Harbor, Me.) were maintained under standard housing conditions in the central animal facility at NII as per institutional ethical committee guidelines. 8-10 week old female SJL/J mice were used throughout the study.
To induce RR EAE or chronic progressive EAE, SJL/J or C57BL6/J mice were immunized subcutaneously with 0.2 mg of MBP (85-109) or 0.1 mg MOG (35-55) emulsified in CFA and 200 ng of pertussis toxin was injected intraperitoneally on day 0 and day 2 so as to permeablize the blood brain barrier. All the animals in various experimental groups were scored daily for clinical disability on a scale of 0-6 where 0=no neurological symptoms, 1=limp tail, 2=weakness of hind limbs or ataxia, 3=incomplete paralysis of hind limbs, 4=complete paralysis of hind limbs, 5=complete paralysis of all four limbs, 6=dead. Diseased animals were provided easy access to food and water.
GA, J91, J92, S101, S102, S103 for two weeks and scored for clinical disability.

Row | Substance | Therapeutic activity in comparison to GA (Therapeutic activity (Analogs) − Therapeutic activity GA) | Therapeutic activity in comparison to J5 (Therapeutic activity (Analogs) − Therapeutic activity (J5)) | Therapeutic activity = % reduction in cumulative clinical disability score
1 | EKPKVEAYKAAAβ^3Aβ^3Pβ^3Aβ^3 [Analog S4] | 4.492% | 0.5348% | 35.83%
2 | EKPKVβ^3Eβ^3Aβ^3Yβ^3Kβ^3Aβ^3Aβ^3Aβ^3Aβ^3Pβ^3Aβ^3 [Analog S11] | 23.53% | 19.57% | 54.87%
3 | EKPKVEβAβYβKβAβAβAβAβPAβ [Analog S49] | 18.93% | 14.97% | 50.27%
4 | KVEβ^3Aβ^3Yβ^3Kβ^3Aβ^3Aβ^3Aβ^3Aβ^3 [Analog S24] | 20.32% | 16.36% | 51.66%
5 | VEAYKβ (VEAY[Kβ″]) [Analog S73] | −10.0535% | −14.0107% | 21.28%
6 | EKβPKβVβEβAβYβKβAβAβAβAβPAβ [Analog S52] | −1.604% | −5.5615% | 29.73%
7 | Eβ^3Kβ^3Pβ^3Kβ^3Vβ^3EAYβ^3Kβ^3Aβ^3Aβ^3Aβ^3Aβ^3Pβ^3Aβ^3 [Analog S16] | 28.88% | 24.92% | 60.2139%
8 | EKPKVEAYβ^3Kβ^3Aβ^3Aβ^3Aβ^3Aβ^3Pβ^3Aβ^3 [Analog S8] | 23.85% | 19.89% | 55.19%
9 | EKPKVEAYKAAAAPAβ [Analog S41] | 2.032% | −1.925% | 33.37%
10 | Kβ^3Vβ^3Eβ^3AβYβ^3Kβ^3AβAβAβAβ^3 [Analog S81] | 31.12% | 27.17% | 62.46%
11 | EKPKVEAYKAAAAPβ^3Aβ^3 [Analog S2] | 2.139% | −1.818% | 33.48%
12 | EKPKVEAYKAAAAPAβ^3 [Analog S1] | 2.995% | −0.9626% | 34.33%
13 | KVEAβYβKβAβAβAβAβ [Analog S61] | 8.6631% | 4.706% | 40%
14 | VEAYβ^3Kβ^3 (VEA[β3hY][β3hK]) [Analog S36] | −2.46% | −6.417% | 28.88%
15 | VEAβ^3Yβ^3Kβ^3 [Analog S37] | −0.9626% | −4.92% | 30.37%
16 | EKPKβ^3Vβ^3Eβ^3Aβ^3Yβ^3Kβ^3Aβ^3Aβ^3Aβ^3Aβ^3Pβ^3Aβ^3 [Analog S12] | 25.88% | 21.93% | 57.22%

Row | Substance | Therapeutic activity in comparison to GA (Therapeutic activity (Analogs) − Therapeutic activity GA) | Therapeutic activity in comparison to J5 (Therapeutic activity (Analogs) − Therapeutic activity (J5)) | Therapeutic activity = % reduction in cumulative clinical disability score
17 | EKPKVEAYKAAAβAβPAβ [Analog S43] | 9.947% | 5.989% | 41.28%
18 | EβKβPKβVβEβAβYβKβAβAβAβAβPAβ [Analog S53] | 0.2139% | −3.743% | 31.5508%
19 | VβEβAβYβKβ [Analog S77] | −18.8235% | −22.7808% | 12.51%
20 | KVEβAβYβKβ [Analog S69] | −8.877% | −12.8342% | 22.46%
21 | KβVβEAYβKβ [Analog S72] | −15.9358% | −19.8931% | 15.4%
22 | EKPKVEAYKβ^3Aβ^3Aβ^3Aβ^3Aβ^3Pβ^3Aβ^3 [Analog S6] | 19.47% | 15.51% | 50.8%
23 | KVEAYKAAAAβ [Analog S55] | −2.781% | −6.738% | 28.56%
24 | Kβ^3Vβ^3Eβ^3Aβ^3Yβ^3Kβ^3 [Analog S33] | 14.44% | 10.48% | 45.7754%
25 | EKPKβVβEβAβYβKβAβAβAβAβPAβ [Analog S51] | −4.92% | −8.877% | 26.42%
26 | EKPKVEAYKAAβAβAβPAβ [Analog S44] | 15.94% | 11.98% | 47.27%
27 | KVEAYβKβAβAβAβAβ [Analog S60] | 10.05% | 6.096% | 41.39%
28 | EKPβ^3Kβ^3Vβ^3Eβ^3Aβ^3Yβ^3Kβ^3Aβ^3Aβ^3Aβ^3Aβ^3Pβ^3Aβ^3 [Analog S13] | 24.71% | 20.75% | 56.04%
29 | KVEAYKβ^3 (KVEAY[β3hK]) [Analog S28] | −7.38% | −11.3369% | 23.96%
30 | KVEAYKAAAβAβ [Analog S56] | −0.4278% | −4.385% | 30.91%
31 | KVEAYβ^3Kβ^3Aβ^3Aβ^3Aβ^3Aβ^3 [Analog S22] | 17.43% | 13.48% | 48.77%
32 | KβVβEAYβKβAβAβAβAβ [Analog S65] | −5.989% | −9.947% | 25.35%

From US20140348861A1, “SYNTHETIC PEPTIDES AND RANDOM COPOLYMERS FOR THE TREATMENT OF AUTOIMMUNE DISORDERS” (NATIONAL INSTITUTE OF IMMUNOLOGY, priority 2011, published 2014)
